# According to ChEMBL document CHEMBL1201862, “PubChem BioAssay data set” (2004):
# Activity calls are given as the source filed them.
# Legend:
# [1] = target: T1, Calpain-2 catalytic subunit (Sus scrofa, UniProt P43367); test: pig calpain II inhibitor potency, dose response, biochemical, fluorogenic peptide substrate (AID 1420); type: functional
# T1 sequence (P43367 whole entry): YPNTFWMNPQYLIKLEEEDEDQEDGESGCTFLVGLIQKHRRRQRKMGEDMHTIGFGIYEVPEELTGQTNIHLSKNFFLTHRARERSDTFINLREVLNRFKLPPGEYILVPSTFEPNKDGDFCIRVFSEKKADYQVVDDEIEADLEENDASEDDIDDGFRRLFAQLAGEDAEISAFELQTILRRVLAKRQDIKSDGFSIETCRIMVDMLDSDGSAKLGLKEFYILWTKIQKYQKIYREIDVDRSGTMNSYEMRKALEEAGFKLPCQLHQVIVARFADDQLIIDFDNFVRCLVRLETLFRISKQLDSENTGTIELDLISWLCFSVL
# [2] = target: Induced myeloid leukemia cell differentiation protein Mcl-1 (Homo sapiens, UniProt Q07820); type: functional
# Cytochrome P450 1A2 = target: T2, Cytochrome P450 1A2 (Homo sapiens, UniProt P05177);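 note: PubChem cytochrome P450 panel assay, CYP1A2 panel member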
# T2 sequence (P05177 whole entry): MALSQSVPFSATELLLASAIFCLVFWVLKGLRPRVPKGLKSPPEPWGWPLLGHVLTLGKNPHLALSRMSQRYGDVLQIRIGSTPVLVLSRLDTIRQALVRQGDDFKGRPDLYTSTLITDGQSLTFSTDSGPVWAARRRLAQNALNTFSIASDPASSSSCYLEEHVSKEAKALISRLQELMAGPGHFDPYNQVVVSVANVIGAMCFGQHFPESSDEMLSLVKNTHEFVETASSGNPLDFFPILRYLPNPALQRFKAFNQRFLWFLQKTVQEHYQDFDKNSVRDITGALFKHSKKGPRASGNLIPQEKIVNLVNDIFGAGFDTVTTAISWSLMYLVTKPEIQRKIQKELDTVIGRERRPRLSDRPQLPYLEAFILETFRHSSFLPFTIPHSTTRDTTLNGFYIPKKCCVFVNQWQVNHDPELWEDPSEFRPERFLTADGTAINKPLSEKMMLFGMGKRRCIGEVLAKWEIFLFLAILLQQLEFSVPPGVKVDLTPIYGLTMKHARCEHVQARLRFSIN
# Cytochrome P450 3A4 = Cytochrome P450 3A4 (Homo sapiens, UniProt P08684);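 note: CYP3A4 tested as one member of a cytochrome P450 panel screen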
# Cytochrome P450 2C9 [3] = target: T3, Cytochrome P450 2C9 (Homo sapiens, UniProt P11712)
# Large T antigen = Large T antigen (Simian virus 40, UniProt P03070); type: functional, Betapolyomavirus macacae;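 note: Confirmatory-stage PubChem screen for compounds that inhibit SV40 T antigen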
# Fatty acid synthase [4] = target: T4, Fatty acid synthase (Homo sapiens, UniProt P49327); test: FAS thioesterase domain inhibitors, dose response, biochemical, endpoint fluorescence intensity, uHTS hits (AID 624327); type: functional;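 note: fluorescence from hydrolysis of an O-methyl fluorescein acyl ester substrate by the enzyme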
# Fatty acid synthase [5] = target: T4, Fatty acid synthase; test: FAS thioesterase domain inhibitors, dose response, biochemical, kinetic fluorescence intensity (AID 624326); type: functional;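 note: rate of fluorescence rise from hydrolysis of a fluorogenic O-methyl fluorescein ester substrate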
# P388/ADR = test: cells; type: functional; conditions: Mus musculus
# SN12K1 = test: cells; type: functional; conditions: Homo sapiens
# P388 = test: cells; type: functional; conditions: Mus musculus
# [6] = target: T5, Rac GTPase-activating protein 1 (Homo sapiens, UniProt Q9H0H5); test: MgcRacGAP GTPase-activating activity inhibitors, confirmation, biochemical, ADP Hunter fluorescence, primary and confirmatory (AID 624330); type: functional
# T5 sequence (Q9H0H5 whole entry): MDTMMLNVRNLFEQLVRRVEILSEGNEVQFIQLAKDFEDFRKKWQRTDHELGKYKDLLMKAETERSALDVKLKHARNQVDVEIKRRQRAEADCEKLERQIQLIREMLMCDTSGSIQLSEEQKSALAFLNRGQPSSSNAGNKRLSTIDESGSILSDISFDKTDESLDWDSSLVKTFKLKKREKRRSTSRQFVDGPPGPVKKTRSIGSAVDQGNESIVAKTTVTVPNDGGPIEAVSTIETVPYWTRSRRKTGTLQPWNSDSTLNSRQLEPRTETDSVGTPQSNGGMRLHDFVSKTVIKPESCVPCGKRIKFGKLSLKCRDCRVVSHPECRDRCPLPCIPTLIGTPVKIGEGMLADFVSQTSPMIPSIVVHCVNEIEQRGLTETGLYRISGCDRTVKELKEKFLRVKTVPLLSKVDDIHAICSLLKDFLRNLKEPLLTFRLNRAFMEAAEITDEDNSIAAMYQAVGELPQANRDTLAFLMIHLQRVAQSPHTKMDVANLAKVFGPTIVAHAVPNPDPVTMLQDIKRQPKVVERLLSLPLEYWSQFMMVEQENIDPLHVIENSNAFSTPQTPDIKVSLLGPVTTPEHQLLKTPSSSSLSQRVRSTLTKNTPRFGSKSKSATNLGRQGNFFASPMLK
# [7] = inhibitors of clade B AD8 Env fusion, dose response, cell-based, cherry-pick (AID 652062); type: functional;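 note: luciferase signal from cell-cell fusion driven by HIV-1 clade B AD8 Env; potency is for inhibitors of fusion seen as a drop in luminescence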
# [8] = inhibitors of HIV Env-driven cell fusion, dose response, cherry-pick (AID 652057); type: functional, cell-based
# Genome polyprotein = Genome polyprotein (dengue virus type 2, UniProt P29990); test: Dengue-2 NS5 methyltransferase inhibitors, primary screen, biochemical, confirmation dose response (AID 588689); type: functional
# [9] = Luminescence Cell-Based Dose Retest to Confirm Inhibitors of Cancer Stem Cells. [Related pubchem assays (depositor defined):AID2717, AID2721]; type: functional; conditions: Homo sapiens
# BJ [10] = test: cytotoxicity toward BJ-TERT fibroblasts, dose response, cell-based, RAS-independent, luminescence (AID 1933); type: functional; conditions: Homo sapiens
# BJ [11] = test: cells; type: functional, cell-based; conditions: Homo sapiens
# BJ [12] = test: cytotoxicity toward BJ-TERT-LT-ST fibroblasts, dose response, cell-based, RAS-independent, luminescence (AID 1935); type: functional; conditions: Homo sapiens;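 note: BJ fibroblasts immortalized with TERT plus LT and ST oncogenes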
# [13] = cytotoxicity toward DRD oncogenic fibroblasts, dose response, cell-based, non-viral oncogenic, luminescence (AID 1934); type: functional; conditions: Homo sapiens
# INS1 = test: beta cell apoptosis inhibitors, cytokine rescue, dose response, luminescence, retest (AID 449756); type: functional, cell-based; conditions: Rattus norvegicus;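 note: cell death triggered by IL-1 beta plus TNF-alpha plus IFN-gamma mixture; protective hits raise ATP signal compared with cytokine alone wells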
# Cytochrome P450 2C9 [14] = target: T3, Cytochrome P450 2C9; remark: listed apart in the source
# Cytochrome P450 2C19 = Cytochrome P450 2C19 (Homo sapiens, UniProt P33261); test: Cytochrome panel assay with activity outcomes. Panel member name: p450-cyp2c19 Compounds with AC50 equal or less than 10 uM are considered active; type: functional; conditions: read-out: AC50
# Induced myeloid leukemia cell differentiation protein Mcl-1, sequence (Q07820 whole entry): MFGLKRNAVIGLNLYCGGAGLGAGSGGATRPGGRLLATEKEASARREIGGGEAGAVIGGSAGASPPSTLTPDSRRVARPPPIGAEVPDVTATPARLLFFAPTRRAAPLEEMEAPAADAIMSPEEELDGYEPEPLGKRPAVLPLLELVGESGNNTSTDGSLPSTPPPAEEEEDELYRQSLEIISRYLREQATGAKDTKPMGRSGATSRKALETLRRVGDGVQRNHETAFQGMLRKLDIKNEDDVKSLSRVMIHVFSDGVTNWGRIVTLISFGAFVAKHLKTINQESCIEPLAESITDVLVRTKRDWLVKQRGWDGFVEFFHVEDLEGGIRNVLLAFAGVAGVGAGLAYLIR
# T4 sequence (P49327 whole entry, the tested form may be a part): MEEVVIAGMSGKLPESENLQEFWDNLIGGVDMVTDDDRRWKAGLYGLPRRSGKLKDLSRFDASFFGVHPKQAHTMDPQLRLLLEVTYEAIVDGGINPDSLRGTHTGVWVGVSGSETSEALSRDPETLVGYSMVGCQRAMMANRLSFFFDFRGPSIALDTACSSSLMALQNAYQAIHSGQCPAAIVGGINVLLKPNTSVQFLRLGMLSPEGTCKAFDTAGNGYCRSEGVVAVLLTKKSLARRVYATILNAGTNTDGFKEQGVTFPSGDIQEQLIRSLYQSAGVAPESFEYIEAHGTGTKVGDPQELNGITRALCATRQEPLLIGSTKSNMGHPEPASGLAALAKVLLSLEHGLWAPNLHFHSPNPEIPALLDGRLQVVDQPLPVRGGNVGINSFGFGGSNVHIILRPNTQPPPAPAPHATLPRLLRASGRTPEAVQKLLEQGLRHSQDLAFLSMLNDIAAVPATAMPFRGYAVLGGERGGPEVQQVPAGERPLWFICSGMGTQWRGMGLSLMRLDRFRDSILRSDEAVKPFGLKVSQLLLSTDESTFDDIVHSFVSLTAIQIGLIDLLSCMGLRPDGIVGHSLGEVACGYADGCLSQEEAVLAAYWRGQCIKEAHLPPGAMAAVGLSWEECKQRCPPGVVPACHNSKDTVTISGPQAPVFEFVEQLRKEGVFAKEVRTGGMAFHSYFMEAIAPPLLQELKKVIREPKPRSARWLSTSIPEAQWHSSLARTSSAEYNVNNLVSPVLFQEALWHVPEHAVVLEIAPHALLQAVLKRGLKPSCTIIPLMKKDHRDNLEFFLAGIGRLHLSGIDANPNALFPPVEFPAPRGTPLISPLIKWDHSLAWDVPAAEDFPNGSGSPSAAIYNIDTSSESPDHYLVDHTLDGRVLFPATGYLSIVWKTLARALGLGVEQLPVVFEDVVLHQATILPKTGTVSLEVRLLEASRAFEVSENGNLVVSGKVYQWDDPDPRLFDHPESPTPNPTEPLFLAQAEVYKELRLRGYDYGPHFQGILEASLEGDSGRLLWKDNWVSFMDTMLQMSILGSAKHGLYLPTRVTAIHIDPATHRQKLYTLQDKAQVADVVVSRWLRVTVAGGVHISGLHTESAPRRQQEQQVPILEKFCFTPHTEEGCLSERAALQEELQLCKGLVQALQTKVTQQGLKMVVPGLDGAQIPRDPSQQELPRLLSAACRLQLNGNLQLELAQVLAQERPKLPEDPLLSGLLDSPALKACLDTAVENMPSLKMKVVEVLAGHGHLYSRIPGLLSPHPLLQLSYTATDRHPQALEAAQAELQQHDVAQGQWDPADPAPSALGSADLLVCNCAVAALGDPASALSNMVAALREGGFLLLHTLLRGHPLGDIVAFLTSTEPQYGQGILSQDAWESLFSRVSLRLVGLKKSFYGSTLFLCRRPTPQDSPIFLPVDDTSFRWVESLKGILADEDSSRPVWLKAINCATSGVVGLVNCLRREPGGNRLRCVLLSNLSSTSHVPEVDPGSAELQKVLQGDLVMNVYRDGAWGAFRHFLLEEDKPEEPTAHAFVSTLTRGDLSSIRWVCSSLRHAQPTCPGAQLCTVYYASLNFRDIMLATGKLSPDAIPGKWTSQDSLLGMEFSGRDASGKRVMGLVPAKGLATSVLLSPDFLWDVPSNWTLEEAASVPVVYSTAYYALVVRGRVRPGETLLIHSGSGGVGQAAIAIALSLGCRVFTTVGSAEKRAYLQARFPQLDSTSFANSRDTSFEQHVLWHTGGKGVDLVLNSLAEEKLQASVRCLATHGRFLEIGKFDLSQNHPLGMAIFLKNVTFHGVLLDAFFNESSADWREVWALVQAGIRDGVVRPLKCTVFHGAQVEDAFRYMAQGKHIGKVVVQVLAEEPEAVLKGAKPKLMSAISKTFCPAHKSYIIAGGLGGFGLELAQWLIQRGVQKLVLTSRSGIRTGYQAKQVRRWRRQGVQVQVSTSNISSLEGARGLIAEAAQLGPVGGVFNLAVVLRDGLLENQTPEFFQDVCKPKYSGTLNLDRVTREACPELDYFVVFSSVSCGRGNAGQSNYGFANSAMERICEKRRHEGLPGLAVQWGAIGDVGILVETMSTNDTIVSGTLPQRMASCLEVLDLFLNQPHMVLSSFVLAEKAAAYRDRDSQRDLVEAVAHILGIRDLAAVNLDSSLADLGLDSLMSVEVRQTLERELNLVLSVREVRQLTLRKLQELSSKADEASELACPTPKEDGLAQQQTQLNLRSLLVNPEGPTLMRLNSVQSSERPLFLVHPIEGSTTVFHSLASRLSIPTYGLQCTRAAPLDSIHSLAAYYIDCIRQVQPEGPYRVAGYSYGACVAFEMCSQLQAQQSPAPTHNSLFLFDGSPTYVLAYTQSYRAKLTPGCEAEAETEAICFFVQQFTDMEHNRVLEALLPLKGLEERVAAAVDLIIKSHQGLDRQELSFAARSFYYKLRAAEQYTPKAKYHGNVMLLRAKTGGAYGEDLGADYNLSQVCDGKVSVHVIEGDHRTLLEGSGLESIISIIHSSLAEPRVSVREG
# Large T antigen, sequence (P03070 whole entry, the tested form may be a part): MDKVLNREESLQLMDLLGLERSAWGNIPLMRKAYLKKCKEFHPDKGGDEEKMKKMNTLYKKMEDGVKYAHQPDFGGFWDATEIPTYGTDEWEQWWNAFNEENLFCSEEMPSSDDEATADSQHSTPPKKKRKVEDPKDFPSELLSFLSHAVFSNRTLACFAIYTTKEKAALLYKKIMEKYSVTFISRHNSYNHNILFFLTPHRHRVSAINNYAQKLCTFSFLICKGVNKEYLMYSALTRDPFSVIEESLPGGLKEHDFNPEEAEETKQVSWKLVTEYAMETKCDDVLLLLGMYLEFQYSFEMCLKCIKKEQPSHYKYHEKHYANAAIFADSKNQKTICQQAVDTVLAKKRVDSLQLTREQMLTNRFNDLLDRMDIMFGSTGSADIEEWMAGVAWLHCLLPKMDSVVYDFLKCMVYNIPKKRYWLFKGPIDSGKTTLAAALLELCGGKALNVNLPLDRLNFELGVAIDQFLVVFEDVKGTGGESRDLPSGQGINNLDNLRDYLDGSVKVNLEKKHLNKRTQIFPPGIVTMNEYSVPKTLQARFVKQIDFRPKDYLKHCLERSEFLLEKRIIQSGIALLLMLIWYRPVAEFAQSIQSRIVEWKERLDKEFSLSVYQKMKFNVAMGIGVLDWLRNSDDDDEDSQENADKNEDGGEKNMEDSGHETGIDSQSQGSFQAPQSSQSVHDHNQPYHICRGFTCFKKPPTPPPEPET
# T3 sequence (P11712 whole entry): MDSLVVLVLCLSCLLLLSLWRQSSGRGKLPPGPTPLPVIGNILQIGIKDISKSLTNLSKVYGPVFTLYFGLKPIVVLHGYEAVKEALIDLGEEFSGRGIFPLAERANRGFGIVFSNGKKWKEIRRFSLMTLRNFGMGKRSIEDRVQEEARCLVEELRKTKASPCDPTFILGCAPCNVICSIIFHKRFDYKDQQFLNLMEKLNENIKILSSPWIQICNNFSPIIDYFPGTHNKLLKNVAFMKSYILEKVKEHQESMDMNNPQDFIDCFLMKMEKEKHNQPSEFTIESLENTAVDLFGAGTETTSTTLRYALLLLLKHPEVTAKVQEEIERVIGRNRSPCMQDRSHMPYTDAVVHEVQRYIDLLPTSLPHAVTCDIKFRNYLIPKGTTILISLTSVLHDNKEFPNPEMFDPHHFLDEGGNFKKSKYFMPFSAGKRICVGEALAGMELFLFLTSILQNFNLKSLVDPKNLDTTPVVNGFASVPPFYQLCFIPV
# Genome polyprotein, sequence (P29990 2492-3391 limits assumed): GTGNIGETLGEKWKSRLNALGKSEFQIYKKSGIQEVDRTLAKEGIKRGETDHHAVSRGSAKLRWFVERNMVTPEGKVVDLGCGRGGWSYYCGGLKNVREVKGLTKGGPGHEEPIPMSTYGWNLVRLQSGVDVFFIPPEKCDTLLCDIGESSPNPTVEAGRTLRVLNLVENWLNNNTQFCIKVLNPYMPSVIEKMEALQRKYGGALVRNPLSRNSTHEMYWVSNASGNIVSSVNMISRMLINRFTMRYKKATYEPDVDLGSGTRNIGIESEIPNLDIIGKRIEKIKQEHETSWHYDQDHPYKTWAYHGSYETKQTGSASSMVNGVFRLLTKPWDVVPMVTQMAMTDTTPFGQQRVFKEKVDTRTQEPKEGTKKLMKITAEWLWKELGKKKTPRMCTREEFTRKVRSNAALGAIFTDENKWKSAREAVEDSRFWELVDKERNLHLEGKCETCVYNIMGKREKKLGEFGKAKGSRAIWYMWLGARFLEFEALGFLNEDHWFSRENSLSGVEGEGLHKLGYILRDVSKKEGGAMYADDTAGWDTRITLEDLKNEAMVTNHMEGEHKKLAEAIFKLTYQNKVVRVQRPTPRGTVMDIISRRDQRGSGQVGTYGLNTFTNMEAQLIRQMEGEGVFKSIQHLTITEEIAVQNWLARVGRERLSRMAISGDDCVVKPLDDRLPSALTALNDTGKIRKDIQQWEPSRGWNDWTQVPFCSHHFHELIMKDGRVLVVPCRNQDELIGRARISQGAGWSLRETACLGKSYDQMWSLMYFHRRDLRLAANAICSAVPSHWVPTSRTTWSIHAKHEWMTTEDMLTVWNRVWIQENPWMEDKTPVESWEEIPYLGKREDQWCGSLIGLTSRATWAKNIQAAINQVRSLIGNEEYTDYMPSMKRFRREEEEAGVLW
structure (smiles),measurement,setting,value
Cc1ccc(CNC(=O)c2ccc3c(=O)[nH]c4c(C(=O)NCC5CCCO5)sc(=S)n4c3c2)cc1 (centres undefined),IC50,[1],5.68 µM (active)
same,IC50,[2],6.74 µM (active)
FC(F)(F)c1cccc(N2CCN(CC3CC4C=CC3C4)CC2)c1 (centres undefined),AC50,Cytochrome P450 1A2,11.2 µM (inconclusive)
same,AC50,Cytochrome P450 3A4,39.8 µM (inconclusive)
same,AC50,Cytochrome P450 2C9 [3],inconclusive
COc1cc(/C=N/NC(=O)c2ccncc2)ccc1O,IC50,Large T antigen,6.8 µM (active)
Cc1ccc(C(=O)N/C(=C\c2cccc([N+](=O)[O-])c2)C(=O)Nc2cccc(C(=O)O)c2)cc1,IC50,Fatty acid synthase [4],15.1 µM (active)
same,IC50,Fatty acid synthase [5],8.2 µM (active)
C=C1C(=O)OC2C1CC1OC2C(C)CCC/C(C)=C\CCC1(C)O (centres undefined),GI50,P388/ADR,9.66 µM (inactive)
same,GI50,SN12K1,10.9 µM (inactive)
same,GI50,P388,8.05 µM (inactive)
C1=Cc2ccccc2Nc2ccccc21 [IMINOSTILBENE],IC50,Large T antigen,14.3 µM (active)
same,IC50,[6],14.9 µM (active)
O=C(COc1ccccc1[N+](=O)[O-])N/N=C/c1ccc(O)cc1,IC50,Large T antigen,9.26 µM (active)
same,IC50,[6],80.8 µM (active)
CCC(NCCc1c[nH]c2ccccc12)=C1C(=O)N(C)C(=O)N(C)C1=O,AC50,[7],17.6 µM (active)
COc1ccc(NC(=O)c2[nH]cnc2C(=O)N[C@H](C)c2ccccc2)cc1,IC50,Fatty acid synthase [4],10.9 µM (active)
same,IC50,Fatty acid synthase [5],11.5 µM (active)
Clc1ccc(-c2noc(CSc3nnc(-c4ccncc4)n3-c3ccccc3)n2)cc1,AC50,[8],25 µM (active)
same,AC50,[7],4.51 µM (active)
CC1=NOC(=O)/C1=C\c1ccc(-c2ccc(Br)cc2C(=O)O)o1,IC50,Genome polyprotein,20.1 µM (active)
C[C@]12CC[C@H](O)C=C1CC[C@@H]1[C@@H]2CC[C@]2(C)C(c3ccc(=O)oc3)CC[C@]12O (some centres undefined),GI50,P388/ADR,119 µM (inactive)
same,GI50,SN12K1,0.0136 µM (active)
same,GI50,P388,116 µM (inactive)
O=C(Nc1ccc(N2CCCC2)cc1)c1ccc(Br)o1,IC50,[2],0.932 µM (active)
NCCCNc1ccc2c3c(nn2CCNCCO)-c2c(O)ccc(O)c2C(=O)c13,GI50,P388/ADR,1.21 µM (inactive)
same,GI50,SN12K1,0.167 µM (active)
same,GI50,P388,0.146 µM (active)
Cc1ccc(S(=O)(=O)Nc2ccccc2C=O)cc1,AC50,Cytochrome P450 2C9 [3],inconclusive
Oc1nc2cc(NCc3ccc(F)cc3)ccc2[nH]1,IC50,Large T antigen,13.2 µM (active)
CC(C)NC(=O)c1ccc(-c2cccc(C(F)(F)F)c2)o1,AC50,Cytochrome P450 2C9 [3],inconclusive
O=c1c(-c2ccc(O)cc2)coc2cc(O[C@@H]3O[C@H](CO)[C@@H](O)[C@H](O)[C@H]3O)ccc12 [DAIDZIN],IC50,Large T antigen,> 100 µM (active)
COc1ccc(C(=O)/C(Br)=C/C(=O)O)cc1,GI50,P388/ADR,17.7 µM (inactive)
same,GI50,SN12K1,6 µM (inactive)
same,GI50,P388,11.7 µM (inactive)
CCN(Cc1ccccc1)C(=O)COC(=O)c1cc(Cl)nc(Cl)c1,IC50,Fatty acid synthase [4],9.66 µM (active)
same,IC50,Fatty acid synthase [5],9.26 µM (active)
CCC(C(=O)O)N1C(=O)/C(=C/C(C)=C/c2ccccc2)SC1=S (centres undefined),IC50,Genome polyprotein,37.8 µM (active)
COC(=O)c1ccc(COc2cc([N+](=O)[O-])cc3cccnc23)o1,IC50,Fatty acid synthase [4],13.3 µM (active)
same,IC50,Fatty acid synthase [5],11.6 µM (active)
Cc1cc(C)nc(Nc2n[nH]c(COc3cccc4ccccc34)n2)n1,AC50,Cytochrome P450 3A4,2.24 µM (inconclusive)
same,AC50,Cytochrome P450 2C9 [3],inconclusive
COc1ccccc1NC(=O)c1sc2ncn(Cc3ccccc3C)c(=O)c2c1C,AC50,Cytochrome P450 2C9 [3],inconclusive
O=S(=O)(Nc1ccc(-c2csc(-c3ccccc3)n2)cc1)c1ccccc1,AC50,[9],5.04 µM (active)
same,IC50,Fatty acid synthase [4],9.18 µM (active)
same,IC50,Fatty acid synthase [5],8.85 µM (active)
CC1(C)N=C(N)N=C(N)N1c1ccc(OCCCOc2ccccc2)c(Cl)c1,EC50,BJ [10],23.8 µM (active)
same,EC50,BJ [11],< 0.12 µM (active)
same,EC50,BJ [12],> 150 µM (not active)
same,EC50,[13],0.174 µM (inconclusive)
same,AC50,INS1,5.88 µM (active)
same,GI50,P388/ADR,1.39 µM (inactive)
same,GI50,SN12K1,0.0289 µM (active)
same,GI50,P388,< 0.01 µM (active)
Cc1ccc2c(c1)C1CN(C)CCC1N2C(=O)Nc1cccc(Cl)c1 (centres undefined),IC50,[2],8.64 µM (not active)
same,AC50,Cytochrome P450 2C9 [14],39.8 µM (inconclusive)
CCOC(=O)N1CCN(Cc2nc3ccc([N+](=O)[O-])cc3c(=O)n2-c2cccc(OC)c2)CC1,IC50,Fatty acid synthase [4],3.46 µM (active)
same,IC50,Fatty acid synthase [5],3.04 µM (active)
COc1ccc([N+](=O)[O-])cc1NC(=O)CCCOc1ccccc1,IC50,Fatty acid synthase [4],7.3 µM (active)
same,IC50,Fatty acid synthase [5],8.62 µM (active)
Cc1ccc(C(=O)Nc2ccc(N3CCOCC3)nc2)cc1,AC50,Cytochrome P450 2C19,2.82 µM (inconclusive)
same,AC50,Cytochrome P450 1A2,17.8 µM (inconclusive)
same,AC50,Cytochrome P450 2C9 [3],inconclusive
COc1ccccc1CNC(=O)CCN1C(=O)COc2ccc(C)cc21,AC50,Cytochrome P450 2C9 [3],inconclusive
N#C/C(=C\c1ccc(O)c(O)c1)C(=O)NCc1ccccc1,IC50,Large T antigen,14.6 µM (active)
same,AC50,Cytochrome P450 2C19,25.1 µM (inconclusive)
same,AC50,Cytochrome P450 2C9 [3],inconclusive
CCN(CC)CCCNc1ncc(C)c2[nH]c3ccncc3c12,GI50,P388/ADR,76.9 µM (inactive)
same,GI50,SN12K1,5.56 µM (inactive)
same,GI50,P388,0.479 µM (active)
COc1cc(C2c3cc4c(cc3[C@@H](Nc3cnc5ccccc5c3)C3COC(=O)[C@H]23)OCO4)cc(OC)c1O (some centres undefined),GI50,P388/ADR,0.182 µM (active)
same,GI50,SN12K1,0.0269 µM (active)
same,GI50,P388,< 0.01 µM (active)
Cc1nn(-c2ccc(Br)cc2)c(O)c1/C=N/c1ccc(S(=O)(=O)Nc2nccs2)cc1,IC50,[2],6 µM (active)
